Assay results published in ChEMBL document CHEMBL1201862, “PubChem BioAssay data set” (2004).
Blank lines part the entries; values can stand above or below the compound they belong to. Activity calls are given as the source filed them.

Columns and labels:
Estrogen receptor beta = Estrogen receptor beta (Homo sapiens, UniProt Q92731);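 note: recombinant ER-beta bound to coactivator SRC1 peptide in presence of estradiol agonist; inhibitors block coactivator peptide binding and lower the FRET signal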
[1] = target: T1, Oxysterols receptor LXR-beta (Homo sapiens, UniProt P55055); test: LXR agonists, Gal4 luciferase reporter, dose response, counter-screen for ssDAF-12 agonist project, cell-based, luminescence, HEK293, S. stercoralis campaign (AID 720737); assay type: functional; conditions: read-out: IC50 (the source's name)
T1 sequence (P55055 whole entry): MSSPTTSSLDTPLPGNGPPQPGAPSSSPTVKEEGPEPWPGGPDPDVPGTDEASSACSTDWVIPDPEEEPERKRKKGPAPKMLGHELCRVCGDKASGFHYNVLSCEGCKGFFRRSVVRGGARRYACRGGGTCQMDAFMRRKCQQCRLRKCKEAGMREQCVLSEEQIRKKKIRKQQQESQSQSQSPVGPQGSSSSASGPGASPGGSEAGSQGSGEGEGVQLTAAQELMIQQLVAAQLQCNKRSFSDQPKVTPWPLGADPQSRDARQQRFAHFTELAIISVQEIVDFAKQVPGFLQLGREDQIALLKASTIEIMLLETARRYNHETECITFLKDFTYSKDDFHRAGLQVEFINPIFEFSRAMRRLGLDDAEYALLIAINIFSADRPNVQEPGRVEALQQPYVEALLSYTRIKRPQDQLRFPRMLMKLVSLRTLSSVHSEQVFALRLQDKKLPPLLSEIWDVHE

[2] = Luminescence-based cell-based high throughput dose response assay to identify activators of the DAF-12 from the parasite S. stercoralis (ssDAF-12).; assay type: functional
[3] = inhibitors of intracellular T. cruzi replication, confirmation, NIH3T3 host cells, beta-gal luminescence (AID 2044); assay type: functional, cell-based;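 note: intracellular parasites grown in NIH/3T3 mouse fibroblasts as host cells; luminescent beta-galactosidase reporter signal from transgenic T. cruzi replicating inside host cells; inhibitors lower the luminescence signal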
[4] = cytotoxicity toward NIH3T3 fibroblasts, dose response, counter-screen, cell-based, ATP luminescence, mouse fibroblasts (AID 2010); assay type: functional;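 note: cells exposed to compound for about 90 hours before reading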
[5] = target: T2, Glutathione-S-transferase (Schistosoma japonicum, UniProt Q26513); test: biotin-GST/anti-GST TR-FRET signal inhibitors, dose response, artefact control for Vif-APOBEC3G degradation inhibitor project, biochemical (AID 1117362); assay type: functional
T2 sequence (Q26513 whole entry): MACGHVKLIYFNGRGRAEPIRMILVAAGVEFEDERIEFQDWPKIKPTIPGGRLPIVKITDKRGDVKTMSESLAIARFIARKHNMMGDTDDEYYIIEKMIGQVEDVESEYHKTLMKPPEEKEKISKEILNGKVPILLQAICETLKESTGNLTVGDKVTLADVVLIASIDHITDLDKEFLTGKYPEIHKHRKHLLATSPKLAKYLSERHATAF

[6] = THP-1 cell cytotoxicity, dose response, cytotoxicity control for Vif-APOBEC3G degradation inhibitor project, THP-1 cells (AID 1117359); assay type: functional; conditions: Human immunodeficiency virus 1, THP-1
[7] = target: FAD-linked sulfhydryl oxidase ALR (Homo sapiens, UniProt P55789); test: inhibitors of human ALR sulfhydryl oxidase, dose response, biochemical, H2O2 detection, luminescence, cherry-pick (AID 493248)
[8] = target: T3, DNA repair protein RAD52 homolog (Homo sapiens, UniProt P43351); assay type: functional, biochemical
T3 sequence (P43351 whole entry): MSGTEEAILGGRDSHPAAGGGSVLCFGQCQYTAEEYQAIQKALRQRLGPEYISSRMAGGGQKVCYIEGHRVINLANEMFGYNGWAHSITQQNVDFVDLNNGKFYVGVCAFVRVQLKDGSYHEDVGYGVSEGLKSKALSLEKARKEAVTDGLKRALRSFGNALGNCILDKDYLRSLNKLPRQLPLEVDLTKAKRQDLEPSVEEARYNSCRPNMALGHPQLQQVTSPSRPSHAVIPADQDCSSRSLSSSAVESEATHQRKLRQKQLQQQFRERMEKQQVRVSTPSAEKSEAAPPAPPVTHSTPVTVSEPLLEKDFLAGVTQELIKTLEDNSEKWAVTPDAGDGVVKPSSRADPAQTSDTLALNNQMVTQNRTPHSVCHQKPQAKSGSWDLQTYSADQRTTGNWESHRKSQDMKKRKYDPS

Caspase-6 = target: T4, Caspase-6 (Homo sapiens, UniProt P55212); test: human caspase-6 inhibitors, dose response, biochemical, VEID-R110 fluorescence, cherry-pick (AID 720632)
T4 sequence (P55212 whole entry): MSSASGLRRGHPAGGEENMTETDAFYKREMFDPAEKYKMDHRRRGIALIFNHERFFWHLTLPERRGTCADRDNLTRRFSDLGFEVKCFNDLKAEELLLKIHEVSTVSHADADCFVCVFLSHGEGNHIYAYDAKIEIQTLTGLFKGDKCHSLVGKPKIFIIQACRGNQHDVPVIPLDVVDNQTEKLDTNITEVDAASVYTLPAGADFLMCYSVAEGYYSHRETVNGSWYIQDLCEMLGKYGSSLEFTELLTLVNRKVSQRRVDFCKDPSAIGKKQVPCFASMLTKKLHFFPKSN

[9] = target: T5, Histone-lysine N-methyltransferase NSD2 (Homo sapiens, UniProt O96028); assay type: biochemical
T5 sequence (O96028 whole entry): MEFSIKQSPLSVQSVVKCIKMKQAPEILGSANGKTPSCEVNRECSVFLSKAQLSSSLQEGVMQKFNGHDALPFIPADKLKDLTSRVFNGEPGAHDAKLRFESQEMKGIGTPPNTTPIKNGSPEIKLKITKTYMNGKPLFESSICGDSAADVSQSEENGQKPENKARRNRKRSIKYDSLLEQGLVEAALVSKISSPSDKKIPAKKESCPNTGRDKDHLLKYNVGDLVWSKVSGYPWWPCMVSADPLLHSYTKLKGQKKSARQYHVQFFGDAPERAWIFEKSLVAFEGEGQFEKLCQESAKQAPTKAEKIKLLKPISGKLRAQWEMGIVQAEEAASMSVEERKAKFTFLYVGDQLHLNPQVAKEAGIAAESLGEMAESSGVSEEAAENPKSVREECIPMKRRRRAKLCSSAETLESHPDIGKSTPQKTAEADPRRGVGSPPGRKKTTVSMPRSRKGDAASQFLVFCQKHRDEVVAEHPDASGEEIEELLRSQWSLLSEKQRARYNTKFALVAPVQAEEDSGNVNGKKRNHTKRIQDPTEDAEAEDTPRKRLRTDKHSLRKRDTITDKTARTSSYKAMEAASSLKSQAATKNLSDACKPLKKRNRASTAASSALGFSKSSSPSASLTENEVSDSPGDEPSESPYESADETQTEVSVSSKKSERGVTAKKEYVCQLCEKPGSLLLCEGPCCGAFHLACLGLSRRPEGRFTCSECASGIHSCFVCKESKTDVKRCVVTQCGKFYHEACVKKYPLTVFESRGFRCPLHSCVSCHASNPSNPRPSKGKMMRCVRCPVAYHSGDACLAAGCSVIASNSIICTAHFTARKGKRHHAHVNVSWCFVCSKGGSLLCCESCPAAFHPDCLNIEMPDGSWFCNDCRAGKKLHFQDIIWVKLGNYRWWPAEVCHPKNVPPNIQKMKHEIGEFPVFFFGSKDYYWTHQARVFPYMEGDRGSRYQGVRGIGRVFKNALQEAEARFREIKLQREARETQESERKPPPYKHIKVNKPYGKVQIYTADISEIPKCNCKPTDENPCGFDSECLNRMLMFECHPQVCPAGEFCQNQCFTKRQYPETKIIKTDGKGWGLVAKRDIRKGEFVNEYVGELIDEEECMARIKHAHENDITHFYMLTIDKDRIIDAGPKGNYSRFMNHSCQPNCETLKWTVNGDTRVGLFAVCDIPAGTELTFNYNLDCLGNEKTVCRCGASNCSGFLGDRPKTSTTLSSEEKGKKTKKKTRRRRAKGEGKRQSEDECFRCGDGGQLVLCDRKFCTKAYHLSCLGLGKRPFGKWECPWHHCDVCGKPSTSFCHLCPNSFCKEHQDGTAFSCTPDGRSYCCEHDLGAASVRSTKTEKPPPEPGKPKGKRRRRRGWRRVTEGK

Chain of FAD-linked sulfhydryl oxidase ALR (P55789 whole entry): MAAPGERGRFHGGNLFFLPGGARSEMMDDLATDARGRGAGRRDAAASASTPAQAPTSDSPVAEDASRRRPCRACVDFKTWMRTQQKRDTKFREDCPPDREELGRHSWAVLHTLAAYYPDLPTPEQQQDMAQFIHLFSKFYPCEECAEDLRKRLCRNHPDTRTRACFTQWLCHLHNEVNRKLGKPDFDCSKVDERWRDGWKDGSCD
Chain of Estrogen receptor beta (Q92731 whole entry, the tested form may be a part): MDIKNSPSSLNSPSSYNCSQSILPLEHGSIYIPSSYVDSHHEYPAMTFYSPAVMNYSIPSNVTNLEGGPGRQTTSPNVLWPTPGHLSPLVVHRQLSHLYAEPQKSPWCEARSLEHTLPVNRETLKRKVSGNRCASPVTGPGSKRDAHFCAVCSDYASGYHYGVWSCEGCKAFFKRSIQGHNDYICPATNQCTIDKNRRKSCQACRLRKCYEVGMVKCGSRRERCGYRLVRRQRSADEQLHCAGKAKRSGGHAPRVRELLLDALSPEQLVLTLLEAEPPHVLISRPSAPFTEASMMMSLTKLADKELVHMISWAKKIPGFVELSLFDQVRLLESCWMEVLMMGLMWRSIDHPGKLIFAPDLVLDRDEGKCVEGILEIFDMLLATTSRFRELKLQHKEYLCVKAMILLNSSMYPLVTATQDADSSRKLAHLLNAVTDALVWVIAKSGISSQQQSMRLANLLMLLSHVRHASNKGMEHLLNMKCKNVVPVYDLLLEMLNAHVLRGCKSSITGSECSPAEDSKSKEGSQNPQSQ

IC50 (Estrogen receptor beta): > 50 µM (not active)
Compound: CCSc1nnc(Cc2cc(=O)[nH]c(=O)[nH]2)n1-c1cc(C)ccc1C

Compound: C=CCn1c(COc2ccc(OC)cc2)nnc1SCn1nnc2ccccc2c1=O
EC50 [1]: > 67.6 µM (inactive) | IC50 [2]: > 67.6 µM (inactive)

Compound: CC1(C)CC(Nc2ccc(Nc3ccccc3)cc2)CC(C)(C)N1
EC50 [3]: 4.14 µM (active) | EC50 [4]: > 60 µM (not active) | IC50 [5]: 64.5 µM (active) | CC50 [6]: > 40 µM (active) | AC50 [7]: 0.27 µM (active) | AC50 [8]: 13.9 µM (active)

AC50 (Caspase-6): 19.2 µM (active) | AC50 [9]: > 20 µM (inactive)
Compound: Cc1cc(/C=C\c2nc(O)c([N+](=O)[O-])c(O)n2)c(C)n1-c1ccccc1
